# Laboratory results published in ChEMBL document CHEMBL1201862, “PubChem BioAssay data set” (2004).
# Activity calls are given as the source filed them.
# What was measured:
# [1] = viability of uninfected HEp-2 cells – cell-based, HTS, cytotoxicity control for RSV inhibitor project, dose response (AID 2410); assay type: functional; conditions: human respiratory syncytial virus
# [2] = test system: Streptococcus sp. 'group A'; experiment: Streptococcus pyogenes SK(-)GAS viability under kanamycin – luminescence, BacTiterGlo, confirmation, counter-screen for streptokinase expression inhibitor project, dose response (AID 1900); assay type: functional, organism-based
# [3] = molecular target: T1, Streptokinase A (Streptococcus pyogenes serotype M1, UniProt P10520); experiment: viability-normalized secreted streptokinase activity reduction – plasminogen activation absorbance, OD405, dose response (AID 1914); assay type: functional, Streptococcus pyogenes M1 GAS;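 also: secreted streptokinase activity via plasminogen activation per viability signal from cell pellet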
# T1 sequence (P10520 whole entry): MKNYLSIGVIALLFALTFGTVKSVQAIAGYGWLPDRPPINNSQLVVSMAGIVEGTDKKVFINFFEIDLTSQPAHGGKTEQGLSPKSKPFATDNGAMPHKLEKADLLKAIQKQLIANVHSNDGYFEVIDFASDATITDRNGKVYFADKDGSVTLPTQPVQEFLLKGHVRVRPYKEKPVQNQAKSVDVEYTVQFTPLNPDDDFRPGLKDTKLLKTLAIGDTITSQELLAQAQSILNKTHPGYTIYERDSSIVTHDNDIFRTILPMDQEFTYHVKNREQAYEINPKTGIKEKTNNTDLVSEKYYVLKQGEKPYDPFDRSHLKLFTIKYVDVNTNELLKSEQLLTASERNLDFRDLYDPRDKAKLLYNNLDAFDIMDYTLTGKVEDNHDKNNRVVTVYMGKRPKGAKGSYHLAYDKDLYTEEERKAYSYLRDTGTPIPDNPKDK
# [4] = test system: Streptococcus; experiment: GAS UMAA2166 growth inhibition – luminescence, BacTiterGlo, counter-screen for streptokinase expression inhibitor project, dose response (AID 1915); assay type: functional, organism-based;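 also: potency for reduction of bacterial viability or growth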
# [5] = Luminescence Cell-Based Dose Retest to Confirm Inhibitors of Cancer Stem Cells. [Related pubchem assays (depositor defined):AID2717, AID2721]; assay type: functional; conditions: Homo sapiens
# [6] = molecular target: Neurotensin receptor type 1 (Homo sapiens, UniProt P30989); assay type: functional;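 also: Image-based confirmatory dose-response assay measuring agonist activity at NTR1; NTR1-expressing U2OS osteosarcoma cells imaged for beta-arrestin GFP spot formation; agonist potency where compounds increase beta-arrestin recruitment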
# [7] = molecular target: T2, Endoribonuclease toxin MazF (Escherichia coli K-12, UniProt P0AE70); experiment: activation of MazEF endoribonuclease cleavage – biochemical, fluorescence, single-stranded RNA substrate, uHTS hits, dose response (AID 588481); assay type: functional
# [8] = molecular target: T2, Endoribonuclease toxin MazF; experiment: substrate-only fluorescence increase artefacts – biochemical, single-stranded RNase substrate, counter-screen for MazEF activator project, dose response (AID 588502); assay type: functional
# [9] = molecular target: T3, Fatty acid synthase (Homo sapiens, UniProt P49327); experiment: inhibition of human FAS-TE enzyme activity – biochemical, endpoint fluorescence intensity, uHTS hits, dose response (AID 624327); assay type: functional;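 also: fluorescence from hydrolysis of an O-methyl fluorescein acyl ester substrate by the enzyme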
# [10] = molecular target: T3, Fatty acid synthase; experiment: inhibition of human FAS-TE enzyme activity – biochemical, kinetic fluorescence intensity, dose response (AID 624326); assay type: functional;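 also: rate of fluorescence rise from hydrolysis of a fluorogenic O-methyl fluorescein ester substrate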
# [11] = suppression of NO production in INS-1E cells – cell-based, Griess absorbance, dry powder, set 3, dose response (AID 488870); assay type: functional; conditions: Rattus norvegicus
# [12] = test system: INS1; experiment: INS-1E mitochondrial potential loss inhibitors – cell-based, JC-1 fluorescence, dry powder, set 2, dose response (AID 488867); assay type: functional; conditions: Rattus norvegicus
# [13] = luciferase reporter signal suppression in cells – H4 neuroglioma cells, luminescence, dose response (AID 1990); assay type: functional, cell-based
# [14] = test system: HEK293; experiment: inhibition of NOD1-driven NF-kB reporter – cell-based, luminescence, uHTS, primary screen (AID 1578); assay type: functional; conditions: Homo sapiens
# [15] = Luminescence Cell-Based Dose Response HTS to Identify Inhibitors of 5'UTR Stem-Loop Driven Prion Protein mRNA Translation in H4 Neuroglioblastoma Cells. [Related pubchem assays: 1827 (Project Summary), 1813 (Primary HTS)]; assay type: functional
# [16] = alpha-synuclein stem-loop luciferase translation blockers – H4 neuroglioma cells, luminescence, confirmation (AID 1988); assay type: functional, cell-based
# [17] = test system: HEK293; experiment: cells; assay type: functional, cell-based; conditions: Homo sapiens
# [18] = molecular target: Nucleotide-binding oligomerization domain-containing protein 2 (Homo sapiens, UniProt Q9HC29); experiment: inhibition of NOD2-driven NF-kB reporter – cell-based, luminescence, uHTS, HEK293 (AID 1566); assay type: functional
# [19] = test system: HEK293; experiment: NOD2 signaling inhibitors in MDP-stimulated cells, cell-based, uHTS, luminescence (AID 2001); assay type: functional; conditions: Homo sapiens
# [20] = test system: HEK293; experiment: cells; assay type: functional, cell-based; conditions: Homo sapiens; remark: listed apart in the source
# [21] = test system: CHO; experiment: CHO cell viability loss, potency – luminescence, cytotoxicity control for TLR9-MyD88 binding inhibitor project, dose response (AID 588339); assay type: functional, cell-based, hamster; conditions: Cricetulus griseus;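 also: CHO cells stably coexpressing TLR9 and MyD88 fusions from primary screen; compound exposure lasted 48 hours before viability readout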
# [22] = molecular target: T4, Replicative DNA helicase DnaB (Mycobacterium tuberculosis, UniProt P9WMR3); experiment: DnaB intein splicing inhibitors, dose response, biochemical, cell-free fluorescence (AID 449749); assay type: functional
# T4 sequence (P9WMR3 whole entry): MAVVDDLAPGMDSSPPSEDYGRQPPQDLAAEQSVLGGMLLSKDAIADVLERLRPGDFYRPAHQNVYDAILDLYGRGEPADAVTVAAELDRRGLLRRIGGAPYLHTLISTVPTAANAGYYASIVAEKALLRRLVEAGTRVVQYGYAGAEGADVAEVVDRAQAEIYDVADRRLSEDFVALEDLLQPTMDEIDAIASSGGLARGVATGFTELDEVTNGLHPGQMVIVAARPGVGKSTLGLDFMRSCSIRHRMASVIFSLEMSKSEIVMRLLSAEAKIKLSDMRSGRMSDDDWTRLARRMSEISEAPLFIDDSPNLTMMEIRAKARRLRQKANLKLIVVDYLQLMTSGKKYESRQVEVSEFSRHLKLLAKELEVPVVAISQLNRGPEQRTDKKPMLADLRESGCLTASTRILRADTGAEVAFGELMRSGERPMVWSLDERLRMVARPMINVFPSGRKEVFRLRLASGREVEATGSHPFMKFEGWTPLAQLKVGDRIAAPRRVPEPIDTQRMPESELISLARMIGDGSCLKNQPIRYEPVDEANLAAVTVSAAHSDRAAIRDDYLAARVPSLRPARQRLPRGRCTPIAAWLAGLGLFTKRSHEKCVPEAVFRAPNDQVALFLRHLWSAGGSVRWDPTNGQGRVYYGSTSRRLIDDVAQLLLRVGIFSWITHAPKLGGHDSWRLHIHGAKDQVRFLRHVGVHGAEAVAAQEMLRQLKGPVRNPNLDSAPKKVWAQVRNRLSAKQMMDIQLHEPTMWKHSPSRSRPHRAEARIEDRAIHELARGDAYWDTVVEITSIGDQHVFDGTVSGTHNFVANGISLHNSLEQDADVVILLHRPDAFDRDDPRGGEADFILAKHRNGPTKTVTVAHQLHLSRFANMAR
# [23] = molecular target: Heat shock protein HSP 90-alpha (Homo sapiens, UniProt P07900); assay type: functional, organism-based
# [24] = molecular target: T5, Protein RecA (Mycobacterium tuberculosis, UniProt P9WHJ3); experiment: Fluorescence Cell-Free Homogeneous Dose Retest to Identify Inhibitors of RecA-Intein Splicing Activity. [Related pubchem assays (depositor defined):AID2097, AID2223, AID489010, AID492950]; assay type: functional
# T5 sequence (P9WHJ3 whole entry): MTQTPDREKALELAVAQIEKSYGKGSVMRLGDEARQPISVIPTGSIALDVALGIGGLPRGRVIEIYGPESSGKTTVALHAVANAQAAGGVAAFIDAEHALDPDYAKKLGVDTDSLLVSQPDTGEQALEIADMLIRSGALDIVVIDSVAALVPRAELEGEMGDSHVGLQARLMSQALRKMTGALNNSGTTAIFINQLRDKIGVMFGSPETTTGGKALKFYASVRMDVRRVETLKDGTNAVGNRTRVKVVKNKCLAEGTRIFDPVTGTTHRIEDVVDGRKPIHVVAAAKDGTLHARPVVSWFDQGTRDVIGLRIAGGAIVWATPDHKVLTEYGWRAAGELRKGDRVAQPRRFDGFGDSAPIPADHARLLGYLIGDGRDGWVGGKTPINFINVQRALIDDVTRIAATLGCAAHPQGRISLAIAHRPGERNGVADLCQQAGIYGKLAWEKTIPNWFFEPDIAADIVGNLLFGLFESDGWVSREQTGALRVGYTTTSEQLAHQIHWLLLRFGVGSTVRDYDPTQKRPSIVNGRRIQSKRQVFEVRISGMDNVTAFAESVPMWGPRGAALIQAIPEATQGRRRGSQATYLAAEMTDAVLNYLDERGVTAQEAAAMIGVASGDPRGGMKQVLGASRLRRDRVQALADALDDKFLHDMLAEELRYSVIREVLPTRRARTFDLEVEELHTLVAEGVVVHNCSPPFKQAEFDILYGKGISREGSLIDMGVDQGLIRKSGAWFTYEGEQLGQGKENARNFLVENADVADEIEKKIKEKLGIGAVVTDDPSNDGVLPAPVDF
# [25] = molecular target: Beta Lactamase (Pseudomonas aeruginosa, UniProt Q932Y6); experiment: BLA reporter interference, concentration series – BLA reporter cells, FRET fluorescence, artefact control for TLR9-MyD88 binding inhibitor project, dose response (AID 588341); assay type: cell-based;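 also: cell based assay in CHO-K1 cells stably expressing beta-lactamase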
# [26] = reduction of Shn3 3'UTR-driven luciferase in osteoblasts – cell-based, Clone20 osteoblasts, firefly luciferase, cherry-picked, dose response (AID 624132); assay type: functional;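 also: firefly luciferase luminescence from reporter carrying the Shn3 3'UTR in osteoblasts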
# [27] = molecular target: ATP-binding cassette sub-family B member 6 (Homo sapiens, UniProt Q9NP58); experiment: concentration-dependent ABCB6 porphyrin transport blockade – K562-ABCB6 cells, flow cytometry, cherry pick 1, dose response (AID 623955); assay type: functional; conditions: read-out: EC50_MICROM
# [28] = loss of viability in HepG2 cells – cell-based, CellTiter-Glo, cherry-picked, cytotoxicity control for Shn3 inhibitor project, dose response (AID 624134); assay type: functional
# [29] = non-specific 3'UTR reporter inhibition in Clone20-Shn3RL – cell-based, Renilla luciferase, cherry-picked, counter-screen for Shn3 inhibitor project, dose response (AID 624133); assay type: functional
# [30] = molecular target: Paired box protein Pax-8 (Homo sapiens, UniProt Q06710); experiment: PAX8 transcriptional activity inhibition in RMG-I – RMG-I cells, luciferase, cherry-pick, dose response (AID 687027); assay type: functional, cell-based;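 also: luciferase reporter driven by Pax8 target thyroperoxidase promoter measured by SteadyGlo luminescence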
# [31] = inhibitors acting on PAX2 in cells – cell-based, plate reader, dry powder samples, selectivity assay for PAX8 inhibitor project, dose response (AID 743048); assay type: functional;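 also: HEK293 cells carrying a WT1 promoter luciferase reporter driven by expressed Pax2; potency is for inhibition of Pax2 driven reporter signal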
# [32] = COV362 cell viability loss – plate reader, dry powder, SA12, cytotoxicity control for PAX8 inhibitor project, dose response (AID 743144); assay type: functional, cell-based
# [33] = toxicity toward immortalized ovarian surface epithelium – cell-based, plate reader, dry powder samples, cytotoxicity control for PAX8 inhibitor project, dose response (AID 743045); assay type: functional
# [34] = A2780 cell killing – plate reader, dry powder samples, cytotoxicity control, dose response (AID 743046); assay type: functional, cell-based
# [35] = OVCAR-3 cell viability loss – plate reader, dry powder samples, PAX8 inhibitor project, dose response (AID 743044); assay type: functional, cell-based
# [36] = PAX5 cellular inhibition readout – cell-based, plate reader, dry powder samples, selectivity assay for PAX8 inhibitor project, dose response (AID 743047); assay type: functional;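 also: HEK293 cells carrying a Pax5 driven CD19 promoter luciferase reporter; potency of inhibitors that lower reporter luminescence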
# [37] = IGROV1 cell killing – plate reader, dry powder samples, PAX8 inhibitor project, dose response (AID 743043); assay type: functional, cell-based; conditions: IGROV-1
# [38] = OVCAR4 cell viability loss – plate reader, dry powder, SA11, cytotoxicity control for PAX8 inhibitor project, dose response (AID 743150); assay type: functional, cell-based; conditions: OVCAR-4
# [39] = COV434 cell viability loss – plate reader, dry powder, SA7, cytotoxicity control for PAX8 inhibitor project, dose response (AID 743145); assay type: functional, cell-based
# [40] = OV-90 cell viability loss – plate reader, dry powder, SA8, PAX8 inhibitor project, dose response (AID 743149); assay type: functional, cell-based
# [41] = PAX8-dependent cell viability loss – plate reader, dry powder, dose response (AID 743049); assay type: functional, cell-based
# [42] = test system: Escherichia coli; experiment: microbe, parasite or virus in culture
# T3 sequence (P49327 whole entry): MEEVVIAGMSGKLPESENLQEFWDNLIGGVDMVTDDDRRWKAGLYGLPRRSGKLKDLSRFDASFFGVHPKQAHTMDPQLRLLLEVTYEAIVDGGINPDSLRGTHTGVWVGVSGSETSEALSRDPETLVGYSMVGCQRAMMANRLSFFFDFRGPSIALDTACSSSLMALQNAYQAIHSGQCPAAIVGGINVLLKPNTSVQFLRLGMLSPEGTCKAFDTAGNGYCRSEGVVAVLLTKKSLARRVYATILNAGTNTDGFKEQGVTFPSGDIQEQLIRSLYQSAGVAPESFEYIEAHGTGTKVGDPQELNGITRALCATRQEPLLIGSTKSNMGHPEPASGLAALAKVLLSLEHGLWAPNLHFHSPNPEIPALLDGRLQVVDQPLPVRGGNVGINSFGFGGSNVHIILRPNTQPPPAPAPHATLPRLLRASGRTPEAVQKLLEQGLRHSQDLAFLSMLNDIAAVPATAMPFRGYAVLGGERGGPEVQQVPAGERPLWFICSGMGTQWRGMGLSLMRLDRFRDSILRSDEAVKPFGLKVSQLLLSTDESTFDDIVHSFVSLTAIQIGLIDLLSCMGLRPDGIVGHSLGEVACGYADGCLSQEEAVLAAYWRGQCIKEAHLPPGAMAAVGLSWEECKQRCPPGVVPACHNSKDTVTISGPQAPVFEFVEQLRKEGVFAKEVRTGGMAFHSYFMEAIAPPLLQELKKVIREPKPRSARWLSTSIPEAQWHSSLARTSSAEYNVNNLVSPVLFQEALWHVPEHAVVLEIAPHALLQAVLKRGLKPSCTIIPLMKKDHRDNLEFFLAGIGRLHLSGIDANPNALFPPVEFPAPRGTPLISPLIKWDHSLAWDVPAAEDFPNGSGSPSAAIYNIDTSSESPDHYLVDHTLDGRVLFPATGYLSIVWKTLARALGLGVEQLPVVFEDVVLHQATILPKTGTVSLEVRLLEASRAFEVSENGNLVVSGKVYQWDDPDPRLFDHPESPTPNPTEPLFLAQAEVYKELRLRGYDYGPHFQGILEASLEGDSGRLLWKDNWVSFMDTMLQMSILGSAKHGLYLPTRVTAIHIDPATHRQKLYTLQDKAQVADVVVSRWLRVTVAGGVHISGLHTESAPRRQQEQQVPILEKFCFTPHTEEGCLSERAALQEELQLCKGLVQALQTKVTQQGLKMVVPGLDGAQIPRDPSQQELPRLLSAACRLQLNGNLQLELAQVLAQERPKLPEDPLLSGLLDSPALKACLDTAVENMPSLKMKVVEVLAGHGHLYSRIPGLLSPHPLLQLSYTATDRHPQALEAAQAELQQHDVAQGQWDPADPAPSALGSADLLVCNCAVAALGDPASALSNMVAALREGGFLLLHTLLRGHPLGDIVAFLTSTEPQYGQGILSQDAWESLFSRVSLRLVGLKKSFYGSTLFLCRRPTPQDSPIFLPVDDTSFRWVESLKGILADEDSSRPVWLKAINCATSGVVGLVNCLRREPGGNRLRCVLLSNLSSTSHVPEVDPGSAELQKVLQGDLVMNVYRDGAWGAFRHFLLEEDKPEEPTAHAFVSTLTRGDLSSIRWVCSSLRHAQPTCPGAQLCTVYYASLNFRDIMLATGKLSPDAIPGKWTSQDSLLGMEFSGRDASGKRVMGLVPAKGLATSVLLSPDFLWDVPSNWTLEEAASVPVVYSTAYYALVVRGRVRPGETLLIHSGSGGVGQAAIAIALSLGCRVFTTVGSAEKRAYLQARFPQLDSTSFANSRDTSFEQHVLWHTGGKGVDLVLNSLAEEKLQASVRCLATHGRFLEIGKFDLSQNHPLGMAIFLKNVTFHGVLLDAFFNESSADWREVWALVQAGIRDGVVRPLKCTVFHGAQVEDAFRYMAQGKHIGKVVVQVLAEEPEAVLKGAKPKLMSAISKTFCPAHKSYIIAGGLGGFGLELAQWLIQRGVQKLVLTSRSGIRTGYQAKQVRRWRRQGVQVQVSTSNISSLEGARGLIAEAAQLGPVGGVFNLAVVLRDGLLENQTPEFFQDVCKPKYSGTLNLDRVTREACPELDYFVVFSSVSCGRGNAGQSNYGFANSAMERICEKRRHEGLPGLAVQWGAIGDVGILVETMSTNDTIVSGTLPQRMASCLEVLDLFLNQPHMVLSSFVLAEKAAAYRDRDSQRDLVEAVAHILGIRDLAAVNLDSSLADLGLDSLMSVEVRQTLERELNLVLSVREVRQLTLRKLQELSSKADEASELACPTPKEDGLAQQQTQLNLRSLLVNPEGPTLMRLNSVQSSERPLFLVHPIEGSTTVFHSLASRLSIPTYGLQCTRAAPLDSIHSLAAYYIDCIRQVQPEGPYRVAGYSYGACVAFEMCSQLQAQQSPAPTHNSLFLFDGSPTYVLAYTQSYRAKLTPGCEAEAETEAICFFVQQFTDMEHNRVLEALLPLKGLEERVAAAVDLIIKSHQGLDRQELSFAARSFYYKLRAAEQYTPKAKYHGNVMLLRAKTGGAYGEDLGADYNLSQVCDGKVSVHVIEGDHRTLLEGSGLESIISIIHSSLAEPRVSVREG
# T2 sequence (P0AE70 whole entry): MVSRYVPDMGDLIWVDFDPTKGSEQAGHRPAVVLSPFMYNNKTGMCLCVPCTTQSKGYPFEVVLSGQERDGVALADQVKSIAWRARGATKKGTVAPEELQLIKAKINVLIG
# Nucleotide-binding oligomerization domain-containing protein 2, sequence (Q9HC29 whole entry, the tested form may be a part): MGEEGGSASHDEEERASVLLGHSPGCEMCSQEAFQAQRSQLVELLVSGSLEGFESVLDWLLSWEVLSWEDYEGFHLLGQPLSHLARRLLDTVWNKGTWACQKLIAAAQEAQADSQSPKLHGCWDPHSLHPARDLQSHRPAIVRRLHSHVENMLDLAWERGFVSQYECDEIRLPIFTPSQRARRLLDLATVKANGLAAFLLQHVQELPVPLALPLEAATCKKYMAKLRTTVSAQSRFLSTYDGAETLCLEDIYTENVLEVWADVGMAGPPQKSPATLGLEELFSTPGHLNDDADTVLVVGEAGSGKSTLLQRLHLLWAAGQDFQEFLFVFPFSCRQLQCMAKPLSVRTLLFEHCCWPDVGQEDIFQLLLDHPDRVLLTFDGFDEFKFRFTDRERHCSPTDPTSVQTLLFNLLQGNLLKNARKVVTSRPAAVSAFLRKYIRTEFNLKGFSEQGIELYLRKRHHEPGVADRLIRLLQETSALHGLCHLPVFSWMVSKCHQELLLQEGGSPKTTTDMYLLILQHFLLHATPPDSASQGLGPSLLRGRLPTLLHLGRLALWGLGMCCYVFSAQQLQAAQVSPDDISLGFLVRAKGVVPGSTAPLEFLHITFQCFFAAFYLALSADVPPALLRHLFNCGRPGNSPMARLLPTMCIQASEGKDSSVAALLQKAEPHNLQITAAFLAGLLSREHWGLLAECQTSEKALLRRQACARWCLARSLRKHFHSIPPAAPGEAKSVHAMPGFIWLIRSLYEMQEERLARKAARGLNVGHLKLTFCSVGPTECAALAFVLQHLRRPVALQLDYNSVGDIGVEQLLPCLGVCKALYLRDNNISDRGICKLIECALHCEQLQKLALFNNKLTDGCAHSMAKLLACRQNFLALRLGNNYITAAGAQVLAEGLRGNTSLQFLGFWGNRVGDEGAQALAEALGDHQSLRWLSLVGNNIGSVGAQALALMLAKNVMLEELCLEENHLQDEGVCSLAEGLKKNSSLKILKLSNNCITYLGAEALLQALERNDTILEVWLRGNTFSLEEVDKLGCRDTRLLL
# Beta Lactamase, sequence (Q932Y6 whole entry): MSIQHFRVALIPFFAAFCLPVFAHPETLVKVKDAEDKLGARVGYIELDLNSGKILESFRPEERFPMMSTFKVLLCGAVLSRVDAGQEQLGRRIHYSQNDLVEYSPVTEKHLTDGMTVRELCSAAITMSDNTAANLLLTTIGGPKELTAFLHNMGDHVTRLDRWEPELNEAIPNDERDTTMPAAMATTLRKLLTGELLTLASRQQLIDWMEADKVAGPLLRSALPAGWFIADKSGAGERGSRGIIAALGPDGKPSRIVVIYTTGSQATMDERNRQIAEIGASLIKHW
# ATP-binding cassette sub-family B member 6, sequence (Q9NP58 whole entry): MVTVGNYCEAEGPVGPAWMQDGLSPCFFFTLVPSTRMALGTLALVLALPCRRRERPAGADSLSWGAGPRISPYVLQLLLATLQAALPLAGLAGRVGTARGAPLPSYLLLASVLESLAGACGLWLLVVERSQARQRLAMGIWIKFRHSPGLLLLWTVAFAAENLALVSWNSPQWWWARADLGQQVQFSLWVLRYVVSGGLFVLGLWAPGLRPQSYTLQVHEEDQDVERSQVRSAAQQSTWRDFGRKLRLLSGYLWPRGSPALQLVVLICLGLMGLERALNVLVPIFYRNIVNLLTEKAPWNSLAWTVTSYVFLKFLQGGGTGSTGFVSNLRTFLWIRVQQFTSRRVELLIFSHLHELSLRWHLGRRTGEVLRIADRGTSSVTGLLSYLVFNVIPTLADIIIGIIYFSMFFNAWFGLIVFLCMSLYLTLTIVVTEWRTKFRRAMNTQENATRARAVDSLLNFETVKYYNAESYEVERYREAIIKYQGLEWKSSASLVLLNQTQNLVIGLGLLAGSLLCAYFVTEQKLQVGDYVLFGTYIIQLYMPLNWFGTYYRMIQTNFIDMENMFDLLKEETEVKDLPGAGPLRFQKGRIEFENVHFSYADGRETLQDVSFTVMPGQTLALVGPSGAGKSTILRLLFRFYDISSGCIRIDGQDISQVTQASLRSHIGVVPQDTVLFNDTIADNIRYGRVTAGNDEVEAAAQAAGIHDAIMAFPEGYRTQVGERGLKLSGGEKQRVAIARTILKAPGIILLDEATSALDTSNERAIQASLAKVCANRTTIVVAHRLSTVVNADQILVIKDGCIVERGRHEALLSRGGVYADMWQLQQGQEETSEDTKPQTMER
structure (smiles),measurement,setting,value
O=[N+]([O-])c1ccc(-c2nc(Nc3cccc(O)c3)c3ccccc3n2)cc1,CC50,[1],22 µM (active)
same,EC50,[2],11.4 µM (active)
same,EC50,[3],> 150 µM (not active)
same,EC50,[4],8.36 µM (active)
same,AC50,[5],3.24 µM (active)
same,EC50,[6],15.3 µM (active)
same,EC50,[7],> 99 µM (inactive)
same,EC50,[8],> 99 µM (inactive)
same,IC50,[9],12.9 µM (active)
same,IC50,[10],13.2 µM (active)
C[C@@H]1CN([C@@H](C)CO)C(=O)c2cccc(NC(=O)Nc3cccc4ccccc34)c2O[C@H]1CN(C)S(=O)(=O)c1ccc2c(c1)OCCCO2,AC50,[11],32.2 µM (active)
same,AC50,[12],253 µM (active)
Cc1cccc(CS(=O)(=O)c2ncc(Cl)c(C(=O)Nc3ccc(F)cc3)n2)c1,EC50,[13],12.2 µM (active)
same,EC50,[14],8.42 µM (active)
same,EC50,[15],22 µM (active)
same,EC50,[16],12.4 µM (active)
same,IC50,[17],> 20 µM (inactive)
same,EC50,[18],> 20 µM (inactive)
same,IC50,[19],10.8 µM (inactive)
same,IC50,[20],> 20 µM (inactive)
same,IC50,[21],2.72 µM (active)
same,AC50,[22],3.25 µM (active)
same,AC50,[23],1.73 µM (active)
same,EC50,[24],2.19 µM (active)
same,IC50,[25],9.48 µM (active)
same,AC50,[26],0.55 µM (active)
same,EC50,[27],80.4 µM (active)
same,AC50,[28],29.2 µM (active)
same,AC50,[29],6.54 µM (active)
same,IC50,[9],9.64 µM (active)
same,IC50,[10],19.4 µM (active)
same,AC50,[30],9.28 µM (active)
same,AC50,[31],14.8 µM (active)
same,AC50,[32],7.95 µM (active)
same,AC50,[33],10.5 µM (active)
same,AC50,[34],23.8 µM (active)
same,AC50,[35],7.88 µM (active)
same,AC50,[36],31.4 µM (active)
same,AC50,[37],9.96 µM (active)
same,AC50,[38],10.5 µM (active)
same,AC50,[39],4.11 µM (active)
same,AC50,[40],8.4 µM (active)
same,AC50,[41],12.7 µM (active)
same,AC50,[42],25.5 µM (active)
